Measured values: PMC12040169 (PLOS Biology, 2025)

Assay: in vitro
Settings: human, hela cells, % viability

Compound	viability at 28.5 h, 10 µM [%]	viability at 28.5 h, 10 µM (bulk resorufin, single well) [%]
O=C(O)c1ccc(COc2ccc3ccccc3c2/C=C2/NC(=O)N(c3ccccc3)C2=O)cc1 [CBK265124]	101	–
O=C1NC(=S)N(c2ccccc2F)C(=O)/C1=C/NCc1ccco1 [CBK265126]	–	86.6
COC(=O)C1=C(C)N(c2cccc(C(F)(F)F)c2)C(=O)/C1=C\c1ccc(C(=O)O)cc1 [CBK265129]	92.8	–
O=C(CSc1nnc(COc2ccccc2)n1-c1ccccc1)c1cccs1 [CBK265133]	99.3	–
Cc1n[nH]c(O)c1C(c1ccc(OC(=O)c2c(F)cccc2F)cc1)c1c(C)n[nH]c1O [CBK265136]	101	–
COc1cc([N+](=O)[O-])ccc1NC(=O)CCN1C(=O)C2C3CCC(C3)C2C1=O (centres unmarked) [CBK265141]	99.3	–
CCOC(=O)C1CCN(/C=C2/C(=O)NC(=S)N(c3ccccc3F)C2=O)CC1 [CBK265142]	–	102
COc1cccc(C(=O)COC(=O)c2cc(-c3ccccc3)nc3ccc(Br)cc23)c1 [CBK265143]	94.4	–
O=C1NC(=O)C(=Cc2cccc(OC(F)(F)C(F)F)c2)C(=O)N1 [CBK265150]	–	108
COCCNC(=O)Nc1ccc2nc(-c3ccccn3)c(-c3ccccn3)nc2c1 [CBK265151]	89.9	–
O=C(Cn1cc(/C=C2\C(=O)NC(=S)N(c3cccc(F)c3)C2=O)c2ccccc21)Nc1ccccc1 [CBK265152]	–	106
COc1cc2c(cc1NC(=O)CSc1nc3ccccc3[nH]1)oc1ccccc12 [CBK265153]	100	–
COc1cc2c(cc1NC(=O)CSc1nc3ccccc3o1)oc1ccccc12 [CBK265154]	105	–
CN(C)S(=O)(=O)N1CCN(c2ccc([N+](=O)[O-])c(NC3CC3)c2)CC1 [CBK265158]	87	–
COc1ccc(Cl)cc1NC(=O)CN(C1CCCCC1)S(=O)(=O)c1ccccc1 [CBK265159]	108	–
CCOc1cc(/C=C2/NC(=O)N(c3ccccc3)C2=O)cc(Cl)c1OCc1cccc(C(=O)O)c1 [CBK265160]	92	–
O=C(NCCO)/C(=C\c1ccccc1)NC(=O)c1ccc(I)cc1 [CBK265162]	89.2	–
C=CCOc1ccc(C(=O)C2=C(O)C(=O)N(Cc3cccnc3)C2c2cccnc2)cc1 (centres unmarked) [CBK265167]	98	–
O=C(COC(=O)c1ccncc1)c1ccc(OC(=O)c2ccccc2)cc1 [CBK265169]	87.3	–
C/C(=C1/SC(=S)N(CCC(=O)O)C1=O)c1ccc(O)cc1 [CBK265171]	102	–

Compound	viability at 28.5 h, 10 µM [%]	viability at 28.5 h, 10 µM (bulk resorufin, single well) [%]
O=C(Nc1ccccc1C(=O)O)c1ccc(S(=O)(=O)N2CCCCC2)cc1 [CBK265174]	103	–
O=C(Nc1ccccc1[N+](=O)[O-])c1ccc(Cl)c(S(=O)(=O)N2CCC(C(=O)O)CC2)c1 [CBK265180]	101	–
O=C(O)c1ccc(NC(=O)C2CCN(S(=O)(=O)c3ccccc3)CC2)cc1 [CBK265181]	110	–
O=C(c1ccccc1)c1ccc(NC(=O)c2ccccc2F)c(NC(=O)c2ccccc2F)c1 [CBK265183]	93.2	–
O=C(O)c1ccc(NS(=O)(=O)c2ccc(NC(=O)c3ccccc3Cl)cc2)cc1 [CBK265184]	93	–
O=C(O)c1cccc(NC(=O)c2cccc(S(=O)(=O)N3CCc4ccccc4C3)c2)c1 [CBK265187]	108	–
O=C(OCc1ccc(Cl)cc1)c1ccc2c(c1)C(=O)N(c1cccc([N+](=O)[O-])c1)C2=O [CBK265188]	109	–
Cc1ccc(C(=O)Nc2cccc3cccnc23)cc1Br [CBK265189]	102	–
COc1ccccc1-c1coc2cc(OC(=O)c3c(C)oc4ccc(OC(C)=O)cc34)ccc2c1=O [CBK265191]	92	–
O=C(O)C1N(Cc2ccccc2)CCCN1Cc1ccccc1 [CBK265196]	111	–
O=C1c2ccccc2C(=O)N1CN(Cc1ccc2c(c1)OCO2)CN1C(=O)c2ccccc2C1=O [CBK265197]	107	–
Cc1ccc(S(=O)(=O)NCC(=O)Nc2ccc(C)cc2C(=O)c2ccccc2)cc1 [CBK265199]	85.8	–
COC(=O)c1ccc(C2N(Cc3ccccc3)CCN2Cc2ccccc2)cc1 [CBK265201]	87.3	–
Cc1cccc(Nc2nc(N)nc(CC(=O)CSc3ccc(Cl)cc3)n2)c1 [CBK265204]	104	–
COc1ccc(-c2nnc(SCc3csc(Nc4ccccc4)n3)n2-c2ccccc2)cc1 [CBK265205]	89.1	–
Oc1ccc(/C=N/n2c(S)nnc2C(F)(F)F)cc1 [CBK265206]	98.6	–
Clc1ccc(CN2CCN(Cc3ccc(Cl)cc3)C2c2ccncc2)cc1 [CBK265207]	104	–
NS(=O)(=O)c1ccc(NC(=O)C2Cc3ccccc3CN2S(=O)(=O)c2ccc(F)cc2)cc1 (centres unmarked) [CBK265208]	103	–
Cn1c(SCC(=O)N2CCN(c3ccccc3)CC2)nnc1-c1cccc([N+](=O)[O-])c1 [CBK265209]	105	–
COc1cc(CN2CCN(C(=O)c3cccnc3)CC2)cc(OC)c1O [CBK265210G]	85.2	–

Compound	viability at 28.5 h, 10 µM [%]	viability at 28.5 h, 10 µM (bulk resorufin, single well) [%]
CC(C)C(=O)Nc1cccc(NC(=O)COc2ccc(Br)cc2)c1 [CBK265211]	94	–
CCOC(=O)c1c(NC(=O)CN2CC(C)OC(C)C2)sc2c1CCCC2 (centres unmarked) [CBK265216]	103	–
CC(=O)Nc1ccc(N2C(=O)CC(N3CCN(Cc4ccc5c(c4)OCO5)CC3)C2=O)cc1 (centres unmarked) [CBK265217]	106	–
Sc1nnc(CSCc2ccccc2Cl)n1-c1ccccc1 [CBK265219]	100	–
CN1CCN(C(S)=Nc2ccc(S(N)(=O)=O)cc2)CC1 [CBK265223]	92.5	–
COc1cc(C2N(Cc3ccccc3)CCCN2Cc2ccccc2)c([N+](=O)[O-])cc1OC [CBK265224]	88.2	–
O=C(/C=C/c1ccc(F)cc1)NCCc1ccc(S(=O)(=O)N2CCCC2)cc1 [CBK265227]	81.8	–
CCNC(=S)N1CCN(CCNC=C2C(=O)NC(=O)NC2=O)CC1 [CBK265228]	–	111
N/C(=N/OCC(=O)Nc1cccc2ccccc12)c1nonc1N [CBK265234]	90.6	–
O=[N+]([O-])c1ccc(/C=N/n2c(S)nnc2COc2ccccc2)cc1 [CBK265240]	91.5	–
CC(=O)Nc1ccc(S(=O)(=O)N2CCCCC2C(=O)O)cc1 (centres unmarked) [CBK265241]	102	–
CCOc1cc(/C=C2\SC(=N)NC2=O)ccc1OS(=O)(=O)c1ccc(NC(C)=O)cc1 [CBK265243]	94	–
COc1cccc(NC(=S)NCCc2ccccn2)c1 [CBK265245]	96.9	–
Cn1nc([N+](=O)[O-])nc1OCc1nc2ccccc2n1C [CBK265247]	88.9	–
COC(=O)Nc1ccc(S(=O)(=O)N2CCCC(C(=O)Nc3cccc(C(F)(F)F)c3)C2)cc1 (centres unmarked) [CBK265248]	92.3	–
COC(=O)CN1C(=O)S/C(=C/c2cc(C)n(-c3ccc(S(N)(=O)=O)cc3)c2C)C1=O [CBK265249]	95.9	–
O=C(O)CN1/C(=C\C=C2/SC(=S)N(c3ccccc3)C2=O)Sc2ccccc21 [CBK265251]	86.3	–
O=C(O)COc1ccccc1/C=N/n1c(S)nnc1-c1ccncc1 [CBK265253]	111	–
O=[N+]([O-])c1ccccc1S(=O)(=O)NCCSCc1c(F)cccc1Cl [CBK265259]	102	–
